System: HSV-1
Experiment: HSV-1 infection of Vero 76 cells, viral DNA detected by hybridization capture (chemiluminescence)
Assay type: cell-based
Details: Human alphaherpesvirus 1; HSV-1 in Vero 76 cells, MOI=0.001, compounds incubated 40–48 hours at 37° C.
Experimental: Vero 76 cells were maintained in MEM with Earle's salts, L-glutamine, 8% FBS (Hyclone, A-1111-L) and 100 units/mL Penicillin-100 μg/mL Streptomycin. For assay conditions, FBS was reduced to 2%. Cells are seeded into 96-well tissue culture plates at a density of 5×10^4 cells/well after being incubated for 45 min at 37° C. in the presence of HSV-1 or HSV-2 (MOI=0.001). Test compounds are added to the wells and the plates are incubated at 37° C. for 40–48 hours. Cell lysates are prepared as follows: media was removed and replaced with 150 μL/well 0.2 N NaOH with 1% Igepal CA 630 or NP-40. Plates were incubated up to 14 days at room temperature in a humidified chamber to prevent evaporation.
For the detection probe, a gel-purified, digoxigenin-labeled, 710-bp PCR fragment of the HSV UL-15 sequence was utilized. PCR conditions included 0.5 μM primers, 180 μM dTTP, 20 μM dUTP-digoxigenin (Boehringer Mannheim 1558706), 200 μM each of dATP, dCTP, and dGTP, 1×PCR Buffer II (Perkin Elmer), 2.5 mM MgCl2, 0.025 units/μL of AmpliTaq Gold polymerase (Perkin Elmer), and 5 ng of gel-purified HSV DNA per 100 μL Extension conditions were 10 min at 95° C., followed by 30 cycles of 95° C. for 1 min, 55° C. for 30 sec. and 72° C. for 2 min. The amplification was completed with a 10-min incubation at 72° C. Primers were selected to amplify a 728 bp probe spanning a section of the HSV1 UL15 open reading frame (nucleotides 249–977). Single-stranded transcripts were purified with Promega M13 Wizard kits. The final product was mixed 1:1 with a mixture of 6 M GuSCN, 100 mM EDTA and 200 μg/mL herring sperm DNA and stored at 4° C.
The capture DNA plasmid (HSV UL13 region in pUC) was linearized by cutting with Xba I, denatured for 15 min at 95° C. and diluted immediately into Reacti-Bind DNA Coating Solution (Pierce, 17250, diluted 1:1 with TE buffer, pH 8) at 1 ng/μL 75 μL/well were added to Corning (#3922 or 9690) white 96-well plates and incubated at room temperature for at least 4 hrs before washing twice with 300 μL/well 0.2×SSC/0.05% Tween-20 (SSC/T buffer). The plates were then incubated overnight at room temperature with 150 μL/well 0.2 N NaOH, 1% IGEPAL and 10 μg/mL herring sperm DNA.
Twenty-seven (27) μL of lysate was combined with 45 μL of hybridization solution (final concentration: 3M GuSCN, 50 mM EDTA, 100 μg/ml salmon sperm DNA, 5×Denhardt's solution, 0.25×APE, and 5 ng of the digoxigenin-labeled detection probe). APE is 1.5 M NH4-acetate, 0.15 M NH4H2 phosphate, and 5 mM EDTA adjusted to pH 6.0 Mineral oil (50 μL) was added to prevent evaporation. The hybridization plates were incubated at 95° C. for 10 minutes to denature the DNA, then incubated at 42° C. overnight. The wells were washed 6× with 300 μl/well SSC/T buffer then incubated with 75 μL/well anti-digoxigenin-HRP-conjugated antibody (Boehringer Mannheim 1207733, 1:5000 in TE) for 30 min at room temperature. The wells were washed 6× with 300 μL/well with PBS/0.05% Tween-20 before 75 μL/well SuperSignal LBA substrate (Pierce) was added. The plates were incubated at room temperature for 30 minutes and chemiluminescence was measured in a Wallac Victor reader.

Compound | IC50
Fc1ccc(-c2nn3ccc(NC4CCCC4)cc3c2-c2ccnc(NC3CCCC3)n2)cc1 [Example 2, N-Cyclopentyl-3-[2-(cyclopentylamino)-4-pyrimidinyl]-2-(4-fluorophenyl)pyrazolo[1,5-α]pyridin-5-amine] | 500 nM
Nc1ccn2nc(-c3ccc(F)cc3)c(-c3ccnc(NC4CCCC4)n3)c2c1 [Example 3, 3-[2-(Cyclopentylamino)-4-pyrimidinyl]2-(4-fluorophenyl)pyrazolo[1,5-α]pyridin-5-amine] | 5000 nM
CS(=O)(=O)Nc1ccn2nc(-c3ccc(F)cc3)c(-c3ccnc(NC4CCCC4)n3)c2c1 [Example 4, N-[3-[2-(Cyclopentylamino)-4-pyrimidinyl]-2-(4-fluorophenyl)pyrazolo[1,5-α]pyridin-5-yl]methanesulfonamide] | 2000 nM
Nc1ccc2c(-c3ccnc(NC4CCCC4)n3)c(-c3ccc(F)cc3)nn2c1 [Example 5, 3-[2-(cyclopentylamino)-4-pyrimidinyl]-2-(4-fluorophenyl)pyrazolo[1,5-α]pyridin-6-amine] | 240 nM
Fc1ccc(-c2nn3cc(NC4CCCC4)ccc3c2-c2ccnc(NC3CCCC3)n2)cc1 [Example 6, N-Cyclopentyl-3-[2-(cyclopentylamino)-4-pyrimidinyl]-2-(4-fluorophenyl)pyrazolo[1,5-α]pyridin-6-amine] | 1000 nM
CC(C)Nc1ccc2c(-c3ccnc(NC4CCCC4)n3)c(-c3ccc(F)cc3)nn2c1 [Example 7, 3-[2-(Cyclopentylamino)-4-pyrimidinyl]-2-(4-fluorophenyl)-N-isopropylpyrazolo[1,5-α]pyridin-6-amine] | 1200 nM
COCCNc1ccn2nc(-c3ccc(F)cc3)c(-c3ccnc(NC4CCCC4)n3)c2c1 [Example 8, 3-[2-(Cyclopentylamino)-4-pyrimidinyl]-2-(4-fluorophenyl)-N-(2-methoxyethyl)pyrazolo[1,5-α]pyridin-5-amine] | 1000 nM
CC(C)Nc1ccn2nc(-c3ccc(F)cc3)c(-c3ccnc(NC4CCCC4)n3)c2c1 [Example 9, 3-[2-(Cyclopentylamino)-4-pyrimidinyl]-2-(4-fluorophenyl)-N-isopropylpyrazolo[1,5-α]pyridin-5-amine] | 2900 nM
COc1ccc(-c2nn3ccc(NC4CCCC4)cc3c2-c2ccnc(NC3CCCC3)n2)cc1 [Example 10, N-Cyclopentyl-3-[2-(cyclopentylamino)-4-pyrimidinyl]-2-(4-methoxyphenyl)-pyrazolo[1,5-α]pyridin-5-amine] | 200 nM
COc1ccc(-c2nn3ccc(NC(C)C)cc3c2-c2ccnc(NC3CCCC3)n2)cc1 [Example 12, 3-[2-(Cyclopentylamino)-4-pyrimidinyl]-N-isopropyl-2-(4-methoxyphenyl)pyrazolo[1,5-α]pyridin-5-amine] | 800 nM
Fc1ccc(-c2nn3ccc(NC4CCCC4)c(Br)c3c2-c2ccnc(NC3CCCC3)n2)cc1 [Example 13, 4Bromo-N-cyclopentyl-3-[2-(cyclopentylamino)pyrimidin-4-yl]-2-(4-fluorophenyl)pyrazolo[1,5-α]pyridin-5-amine] | 3000 nM
Fc1ccc(-c2nn3ccc(NC4CCCC4)c(Cl)c3c2-c2ccnc(NC3CCCC3)n2)cc1 [Example 14, 4-Chloro-N-cyclopentyl-3-[2-(cyclopentylamino)pyrimidin-4-yl]-2-(4-fluorophenyl)pyrazolo[1,5-α]pyridin-5-amine] | 1900 nM
COc1ccc(-c2nn3ccc(NC4CCCC4)c(Br)c3c2-c2ccnc(NC3CCCC3)n2)cc1 [Example 15, 4-Bromo-N-cyclopentyl-3-[2-(cyclopentylamino)pyrimidin-4-yl]-2-(4-methoxyphenyl)pyrazolo[1,5-α]pyridin-5-amine] | 3500 nM
COc1ccc(-c2nn3ccc(NC4CCCC4)c(Cl)c3c2-c2ccnc(NC3CCCC3)n2)cc1 [Example 16, 4-Chloro-N-cyclopentyl-3-[2-(cyclopentylamino)pyrimidin-4-yl]-2-(4-methoxyphenyl)pyrazolo[1,5-α]pyridin-5-amine] | 2800 nM
CCCCNc1cc(-c2c(-c3ccc(F)cc3)nn3cccc(NCCCC)c23)ccn1 [Example 17, N-Butyl-3-[2-(butylamino)pyridin-4-yl]-2-(4-fluorophenyl)pyrazolo[1,5-α]pyridin-4-amine] | 2500 nM
Oc1ccc(-c2nn3ccc(NC4CCCC4)cc3c2-c2ccnc(NC3CCCC3)n2)cc1 [Example 18, 4-{5-(Cyclopentylamino)-3-[2-(cyclopentylamino)-4-pyrimidinyl]pyrazolo[1,5-α]pyridin-2-yl}phenol] | 1200 nM
CC(C)COc1ccc(-c2nn3ccc(NC4CCCC4)cc3c2-c2ccnc(NC3CCCC3)n2)cc1 [Example 19, N-Cyclopentyl-3-[2-(cyclopentylamino)-4-pyrimidinyl]-2-(4-isobutoxyphenyl)pyrazolo[1,5-α]pyridin-5-amine] | 500 nM
c1cc(-c2c(-c3ccc(OCC4CC4)cc3)nn3ccc(NC4CCCC4)cc23)nc(NC2CCCC2)n1 [Example 20, N-Cyclopentyl-3-[2-(cyclopentylamino)-4-pyrimidinyl]-2-[4-(cyclopropylmethoxy)phenyl]pyrazolo[1,5-α]pyridin-5-amine] | 300 nM

Reference: patent US7141569B2, “Antiviral pyrazolopyridine compounds” (SmithKline Beecham Corporation, priority 2001, dated 2006)
